Reference: patent publication US8916526B2, “Flavanone derivative” (National University Corporation Okayama University, priority 2009, dated 2014)
In brackets after ≈: the same amount, converted by molar mass.

Tests used:
[1] = system: Vancomycin intermediate-resistant Staphylococcus aureus Mu50; assay: In vitro infectivity assay (MIC), Exp. Ex. 2-1; type: cell-based; conditions: Gram-positive; microdilution, MIC after 24 h
Description: (§1) The antibacterial activities were measured based on broth dilution techniques of international standards (Clinical Laboratory Standards Institute: CLSI). The activities were shown by minimum inhibitory concentrations (MICs) determined by inoculating the above-mentioned strains at a concentration of about 10^5 […] into Mueller-Hinton broth (manufactured by Difco) containing 0.85% NaCl in 96-well microplates and incubating the plates at 35° C. for 24 hours. Measurement was carried out three times.
(§2) The antibacterial activities of the compounds of the present invention against various strains such as vancomycin-resistant enterococci (VRE), vancomycin intermediate-resistant Staphylococcus aureus (VISA), methicillin-resistant Staphylococcus aureus (MRSA), and methicillin-sensitive Staphylococcus aureus (MSSA) were examined. Of the bacteria used in MIC measurement in this test example, clinical bacteria of MRSA (OM481 strain and OM584 strain) were supplied from Okayama University Hospital (Japan). An MRSA strain N315, a vancomycin intermediate-resistant Staphylococcus aureus (VISA) strain Mu50, and a methicillin-sensitive Staphylococcus aureus (MSSA) strain FDA 209P were used as controls. Vancomycin-resistant enterococcus (VRE) strains NCTC 12201 and FN-1 were supplied from the National Institute of Infectious Disease (Japan).

[2] = system: Vancomycin-resistant enterococci FN-1; assay: In vitro infectivity assay (MIC), Exp. Ex. 2-1; type: cell-based; conditions: Gram-positive; microdilution, MIC after 24 h
Description: as §1, §2

[3] = system: Vancomycin-resistant enterococci NCTC 12201; assay: In vitro infectivity assay (MIC), Exp. Ex. 2-1; type: cell-based; conditions: Gram-positive; microdilution, MIC after 24 h
Description: as §1, §2

[4] = system: Methicillin sensitive S. aureus 209P; assay: In vitro infectivity assay (MIC), Exp. Ex. 2-1; type: cell-based, Staphylococcus aureus; conditions: Gram-positive; microdilution, MIC after 24 h
Description: as §1, §2

[5] = system: Methicillin-resistant S. aureus COL; assay: In vitro infectivity assay (MIC), Exp. Ex. 2-1; type: cell-based, Staphylococcus aureus; conditions: Gram-positive; microdilution, MIC after 24 h
Description: as §1, §2

[6] = system: Methicillin-resistant S. aureus N315; assay: In vitro infectivity assay (MIC), Exp. Ex. 2-1; type: cell-based, Staphylococcus aureus; conditions: Gram-positive; microdilution, MIC after 24 h
Description: as §1, §2

[7] = system: Methicillin-resistant S. aureus OM481; assay: In vitro infectivity assay (MIC), Exp. Ex. 2-1; type: cell-based, Staphylococcus aureus; conditions: Gram-positive; microdilution, MIC after 24 h
Description: as §1, §2

[8] = system: Methicillin-resistant S. aureus OM584; assay: In vitro infectivity assay (MIC), Exp. Ex. 2-1; type: cell-based, Staphylococcus aureus; conditions: Gram-positive; microdilution, MIC after 24 h
Description: as §1, §2

[9] = system: Streptococcus pneumoniae R6; assay: In vitro infectivity assay (MIC), Exp. Ex. 2-1; type: cell-based; conditions: Gram-positive; microdilution, MIC after 24 h
[10] = system: Escherichia coli K-12; assay: Antibacterial activity (MIC) against Gram-negative strains, microdilution; type: cell-based; conditions: MIC after 24 h
Description: as §1

[11] = system: Pseodomonas aeruginosa PAOI; assay: as above; type: cell-based; conditions: MIC after 24 h
Description: as §1

[12] = target: T1, E. coli DNA gyrase (Escherichia coli, UniProt P0AES4+P0AES6); assay: DNA gyrase inhibition (supercoiling kit), Exp. Ex. 2-2; type: biochemical; conditions: supercoiling activity, 37° C., 30 minutes; read-out: IC50 (E. coli DNA gyrase inhibitions)
T1 construct: purchased John Innes Enterprises #K0001
T1 sequence (P0AES4 whole entry, one chain of several): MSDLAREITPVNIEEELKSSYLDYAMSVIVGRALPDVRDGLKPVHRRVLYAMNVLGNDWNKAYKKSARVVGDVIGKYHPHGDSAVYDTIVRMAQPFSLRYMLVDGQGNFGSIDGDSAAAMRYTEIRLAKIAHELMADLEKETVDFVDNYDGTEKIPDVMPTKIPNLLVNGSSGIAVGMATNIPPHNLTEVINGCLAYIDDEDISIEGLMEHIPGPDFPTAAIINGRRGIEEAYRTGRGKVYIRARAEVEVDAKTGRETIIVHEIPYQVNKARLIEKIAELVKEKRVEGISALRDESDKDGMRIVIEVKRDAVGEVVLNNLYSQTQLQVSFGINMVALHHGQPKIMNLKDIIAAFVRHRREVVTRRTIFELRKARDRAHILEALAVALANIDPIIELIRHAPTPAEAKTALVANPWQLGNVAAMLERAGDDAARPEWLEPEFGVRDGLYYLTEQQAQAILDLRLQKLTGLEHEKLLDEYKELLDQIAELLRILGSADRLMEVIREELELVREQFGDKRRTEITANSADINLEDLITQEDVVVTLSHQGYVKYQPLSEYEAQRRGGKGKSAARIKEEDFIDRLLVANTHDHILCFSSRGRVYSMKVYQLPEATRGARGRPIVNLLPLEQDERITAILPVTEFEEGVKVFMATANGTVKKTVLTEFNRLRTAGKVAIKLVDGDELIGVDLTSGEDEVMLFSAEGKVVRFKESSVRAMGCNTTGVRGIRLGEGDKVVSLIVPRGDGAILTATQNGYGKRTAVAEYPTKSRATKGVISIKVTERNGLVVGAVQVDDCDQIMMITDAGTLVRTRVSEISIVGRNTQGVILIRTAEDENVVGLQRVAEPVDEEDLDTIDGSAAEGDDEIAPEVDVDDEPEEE
Description: (§3) As a kit for measurement of DNA gyrase of Escherichia coli, a product purchased from John Innes Enterprises (Gyrase Supercoiling assay kit #K0001) was used. Relaxed DNA was modified with gyrase into supercoiled DNA, and reaction products were separated by electrophoresis depending on the sizes of the molecular weights to examine anti-gyrase effects (IC50). 1 unit (1 U) of DNA gyrase and […] of relaxed pBR322 DNA were added to […] of the reaction solution, and the mixture was allowed to react at 37° C. for 30 minutes in the presence of 35 mM Tris-HCl (pH 7.5), 24 mM KCl, 4 mM MgCl2, 2 mM DTT, 1.8 mM spermidine, 1 mM ATP, 6.5% (w/v) glycerol, and 0.1 mg/ml BSA. The reactions were stopped using […] of a reaction stop solution (40% sucrose, 100 mM Tris-HCl (pH 7.5), 1 mM EDTA, 0.5 mg/ml bromophenol blue).

[13] = target: T2, Escherichia coli Topoisomerase IV (Escherichia coli, UniProt P0AFI2+P20083); assay: Topoisomerase IV inhibition (decatenation kit), Exp. Ex. 2-3; type: biochemical; conditions: decatenation of kDNA, 37° C., 30 minutes; read-out: IC50 (E. coli topoisomerase IV inhibitions)
T2 construct: purchased John Innes Enterprises
T2 sequence (P20083 whole entry): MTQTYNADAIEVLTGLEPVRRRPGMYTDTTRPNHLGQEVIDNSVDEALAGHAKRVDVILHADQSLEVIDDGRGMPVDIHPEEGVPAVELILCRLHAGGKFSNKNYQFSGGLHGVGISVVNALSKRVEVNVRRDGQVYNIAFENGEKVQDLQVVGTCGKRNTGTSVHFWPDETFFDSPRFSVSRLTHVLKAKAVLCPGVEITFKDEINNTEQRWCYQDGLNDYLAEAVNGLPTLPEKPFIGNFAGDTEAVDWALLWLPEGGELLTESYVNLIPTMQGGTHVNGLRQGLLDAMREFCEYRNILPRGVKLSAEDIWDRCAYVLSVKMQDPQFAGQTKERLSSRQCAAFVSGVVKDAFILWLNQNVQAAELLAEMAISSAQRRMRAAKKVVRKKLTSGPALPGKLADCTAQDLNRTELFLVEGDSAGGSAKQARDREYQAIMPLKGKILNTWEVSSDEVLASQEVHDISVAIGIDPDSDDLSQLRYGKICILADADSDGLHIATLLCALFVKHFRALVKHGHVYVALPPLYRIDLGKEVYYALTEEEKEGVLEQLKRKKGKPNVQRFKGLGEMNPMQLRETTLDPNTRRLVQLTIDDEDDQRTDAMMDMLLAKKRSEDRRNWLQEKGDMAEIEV
T2 sequence (P0AFI2 whole entry): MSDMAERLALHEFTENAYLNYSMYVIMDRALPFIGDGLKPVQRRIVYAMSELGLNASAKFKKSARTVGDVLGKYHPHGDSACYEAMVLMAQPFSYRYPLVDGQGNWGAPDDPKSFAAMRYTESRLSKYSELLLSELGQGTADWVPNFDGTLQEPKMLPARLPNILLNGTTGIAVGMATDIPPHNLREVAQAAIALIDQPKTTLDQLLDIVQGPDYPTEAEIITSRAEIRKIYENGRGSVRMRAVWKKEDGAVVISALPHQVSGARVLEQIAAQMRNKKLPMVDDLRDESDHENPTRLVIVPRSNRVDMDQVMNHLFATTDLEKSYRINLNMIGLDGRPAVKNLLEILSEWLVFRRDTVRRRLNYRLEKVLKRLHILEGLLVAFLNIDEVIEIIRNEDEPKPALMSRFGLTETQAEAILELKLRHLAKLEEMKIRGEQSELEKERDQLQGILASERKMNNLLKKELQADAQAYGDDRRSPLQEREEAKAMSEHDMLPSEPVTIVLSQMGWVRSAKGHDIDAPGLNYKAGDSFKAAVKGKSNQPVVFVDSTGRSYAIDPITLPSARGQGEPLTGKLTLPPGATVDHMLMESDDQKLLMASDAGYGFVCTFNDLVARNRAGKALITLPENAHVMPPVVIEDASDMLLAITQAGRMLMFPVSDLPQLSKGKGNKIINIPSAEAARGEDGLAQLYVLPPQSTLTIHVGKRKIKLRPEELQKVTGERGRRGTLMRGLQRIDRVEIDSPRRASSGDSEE
Description: (§4) Staphylococcus aureus Topoisomerase IV and Escherichia coli Topoisomerase IV were purchased from John Innes Enterprises. 1 unit of topoisomerase IV was cultured with 200 ng of kinetoplast DNA (kDNA) in 30 L of a reaction solution at 37° C. for 30 minutes under the conditions of 50 mM Tris-HCl (pH 7.5) (S. aureus)/50 mM HEPES-KOH (pH 7.6) (E. coli), 5 mM MgCl2 (S. aureus)/5 mM magnesium acetate (E. coli), 350 mM potassium glutamate (S. aureus)/100 mM potassium glutamate (E. coli), 5 mM dithiotheri (S. aureus)/10 mM dithiotheri (E. coli), 1.5 mM ATP (S. aureus)/1 mM ATP (E. coli), and 40% (w/v) glycerol. The reactions were stopped by adding 8 L of a reaction stop solution (40% sucrose, 100 mM Tris.HCl (pH 7.5), 1 mM EDTA, 0.5 mg/ml bromophenol blue). Agarose gel (1.0%) was poured into TAE (40 mM Tris acetate, 2 mM EDTA).

[14] = target: T3, Staphylococcus aureus Topoisomerase IV (Staphylococcus aureus, UniProt P0C1S7+P0C1U9); assay: as above; type: biochemical; conditions: decatenation of kDNA, 37° C., 30 minutes; read-out: IC50 (S. aureus topoisomerase IV inhibitions)
T3 construct: purchased John Innes Enterprises
T3 sequence (P0C1U9 whole entry): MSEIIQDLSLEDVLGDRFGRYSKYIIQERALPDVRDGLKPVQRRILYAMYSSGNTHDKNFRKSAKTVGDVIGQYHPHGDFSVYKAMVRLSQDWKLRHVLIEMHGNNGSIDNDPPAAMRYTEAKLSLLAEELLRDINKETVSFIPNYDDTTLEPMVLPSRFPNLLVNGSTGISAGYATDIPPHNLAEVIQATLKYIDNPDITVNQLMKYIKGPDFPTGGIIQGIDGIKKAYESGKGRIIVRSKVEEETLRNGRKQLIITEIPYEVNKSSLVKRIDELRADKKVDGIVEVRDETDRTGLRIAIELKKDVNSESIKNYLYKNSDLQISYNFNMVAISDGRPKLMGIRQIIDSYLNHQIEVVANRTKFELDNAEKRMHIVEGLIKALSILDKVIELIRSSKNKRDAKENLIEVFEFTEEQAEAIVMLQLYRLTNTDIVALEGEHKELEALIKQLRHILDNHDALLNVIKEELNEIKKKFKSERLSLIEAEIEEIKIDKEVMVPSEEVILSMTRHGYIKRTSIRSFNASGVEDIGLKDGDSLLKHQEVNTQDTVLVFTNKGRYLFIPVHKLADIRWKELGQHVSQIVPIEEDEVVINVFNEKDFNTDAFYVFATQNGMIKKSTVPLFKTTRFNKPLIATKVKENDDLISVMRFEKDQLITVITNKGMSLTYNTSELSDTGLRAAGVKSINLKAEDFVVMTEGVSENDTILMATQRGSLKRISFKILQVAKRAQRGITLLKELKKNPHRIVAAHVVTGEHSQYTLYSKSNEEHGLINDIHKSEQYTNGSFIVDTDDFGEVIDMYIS
T3 sequence (P0C1S7 whole entry): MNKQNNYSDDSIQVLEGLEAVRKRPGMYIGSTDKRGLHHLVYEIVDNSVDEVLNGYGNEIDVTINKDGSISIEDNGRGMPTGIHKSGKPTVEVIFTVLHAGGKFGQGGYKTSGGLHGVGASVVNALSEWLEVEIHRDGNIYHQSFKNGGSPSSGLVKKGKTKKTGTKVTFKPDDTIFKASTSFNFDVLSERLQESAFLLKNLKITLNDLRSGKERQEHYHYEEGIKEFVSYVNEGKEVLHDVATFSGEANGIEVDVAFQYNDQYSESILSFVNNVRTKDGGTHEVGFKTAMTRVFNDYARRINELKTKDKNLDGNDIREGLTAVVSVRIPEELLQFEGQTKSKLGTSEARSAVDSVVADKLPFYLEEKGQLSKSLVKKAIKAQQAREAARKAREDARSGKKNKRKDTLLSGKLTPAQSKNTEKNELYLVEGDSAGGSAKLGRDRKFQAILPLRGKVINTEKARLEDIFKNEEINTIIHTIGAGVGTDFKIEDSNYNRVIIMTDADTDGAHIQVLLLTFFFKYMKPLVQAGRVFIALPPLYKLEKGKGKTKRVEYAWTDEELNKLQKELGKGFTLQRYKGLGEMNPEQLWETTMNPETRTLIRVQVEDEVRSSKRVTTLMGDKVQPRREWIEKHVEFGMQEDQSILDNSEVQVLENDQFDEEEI
Description: as §4

[15] = system: MRSA N315; assay: In vitro infectivity assay (MIC), broth dilution, Exp. Ex. 1-1; type: cell-based, Staphylococcus aureus; conditions: MRSA N315; Mueller-Hinton broth, 35° C., 24 hours
Description: as §1
(§5) The antibacterial activities of the compounds of the present invention against various strains such as methicillin-resistant Staphylococcus aureus (MRSA), vancomycin intermediate-resistant Staphylococcus aureus (VISA), methicillin-sensitive Staphylococcus aureus (MSSA), and vancomycin-resistant enterococci (VRE) were examined. Of the bacteria used in MIC measurement in this test example, clinical bacteria of MRSA (OM481 strain and OM584 strain) were supplied from Okayama University Hospital (Japan). An MRSA strain N315, a vancomycin intermediate-resistant Staphylococcus aureus (VISA) strain Mu50, and a methicillin-sensitive Staphylococcus aureus (MSSA) strain FDA 209P were used as controls. Vancomycin-resistant enterococcus (VRE) strains NCTC 12201 and FN-1 were supplied from the National Institute of Infectious Disease (Japan).

[16] = system: MRSA OM481; assay: as above; type: cell-based, Staphylococcus aureus; conditions: MRSA OM481; Mueller-Hinton broth, 35° C., 24 hours
Description: as §1, §5

[17] = system: MRSA OM58; assay: as above; type: cell-based, Staphylococcus aureus; conditions: MRSA OM58; Mueller-Hinton broth, 35° C., 24 hours
Description: as §1, §5

[18] = system: MSSA FDA 209P; assay: as above; type: cell-based, Staphylococcus aureus; conditions: MSSA FDA 209P; Mueller-Hinton broth, 35° C., 24 hours
Description: as §1, §5

[19] = system: VISA Mu50; assay: as above; type: cell-based, Staphylococcus aureus; conditions: VISA Mu50; Mueller-Hinton broth, 35° C., 24 hours
Description: as §1, §5

[20] = system: VRE FN-1; assay: as above; type: cell-based, enterococci; conditions: VRE FN-1; Mueller-Hinton broth, 35° C., 24 hours
Description: as §1, §5

[21] = system: VRE NCTC12201; assay: as above; type: cell-based, enterococci; conditions: VRE NCTC12201; Mueller-Hinton broth, 35° C., 24 hours
Description: as §1, §5

[22] = target: T4, DNA gyrase of Escherichia coli (Escherichia coli, UniProt P0AES4+P0AES6); assay: DNA gyrase inhibition (supercoiling assay kit), Exp. Ex. 1-2; type: biochemical; conditions: E. coli DNA gyrase supercoiling, relaxed pBR322, 37° C., 30 minutes
T4 construct: purchased John Innes Enterprises #K0001
T4 sequence (P0AES4 whole entry, one chain of several): as the sequence (P0AES4 whole entry, one chain of several) above
Description: as §3, with “(IC50). One” for “(IC50). 1”

Row | Structure (SMILES) | MIC VISA Mu50 [1] [µg/mL] | MIC VRE FN-1 [2] [µg/mL] | MIC VRE NCTC 12201 [3] [µg/mL] | MIC MSSA 209P [4] [µg/mL] | MIC MRSA COL [5] [µg/mL] | MIC MRSA N315 [6] [µg/mL] | MIC MRSA OM481 [7] [µg/mL] | MIC MRSA OM584 [8] [µg/mL] | MIC S. Pneumoniae R6 [9] [µg/mL] | MIC (Gram-nagative) K-12 [10] [µg/mL] | MIC (Gram-nagative) PAO1 [11] [µg/mL] | IC50 [12] [nM] | IC50 [13] [nM] | IC50 [14] [nM] | further results
1 | CCOc1ccc(CCC(=O)OC[C@H]2O[C@@H](Oc3c(-c4ccc(O)c(O)c4)oc4cc(O)cc(O)c4c3=O)[C@H](OC(=O)CCc3ccc(OCC)cc3)[C@@H](O)[C@H]2O)cc1 [Compound 14g, 2-(3′,4′-Dihydroxyphenyl)-5,7-dihydroxy-3-β-D-{2″,6″-di-O-[3′″-(4-ethoxyphenylpropanoyl)]}galactosyl-4H-chromen-4-one] | 1 (≈ 1.22 µM) | 2 (≈ 2.45 µM) | 2 (≈ 2.45 µM) | 2 (≈ 2.45 µM) | 4 (≈ 4.9 µM) | 2 (≈ 2.45 µM) | 1 (≈ 1.22 µM) | 1 (≈ 1.22 µM) | 8 (≈ 9.79 µM) | >128 | >128 | 5390 | > 12000 | 2990 | –
2 | O=C(O[C@H]1[C@H](Oc2c(-c3ccc(O)c(O)c3)oc3cc(O)cc(O)c3c2=O)O[C@H](CO)[C@@H](O)[C@@H]1OC(=O)c1ccc(F)cc1)c1ccc(F)cc1 [Compound 15g, 2-(3′,4′-Dihydroxy)-5,7-dihydroxy-3-β-D-(2″,3″-di-p-flurobenzoyloxy)glucosyl-4H-chromen-4-one] | – | – | – | – | – | – | – | – | – | – | – | – | – | – | MIC MRSA N315 [15]: 2 µg/mL (≈ 2.82 µM); MIC MRSA OM481 [16]: 16 µg/mL (≈ 22.6 µM); MIC MRSA OM58 [17]: 16 µg/mL (≈ 22.6 µM); MIC MSS 209P [18]: 2 µg/mL (≈ 2.82 µM); MIC VISA Mu50 [19]: 2 µg/mL (≈ 2.82 µM); MIC VRE FN-1 [20]: 8 µg/mL (≈ 11.3 µM); MIC VRE NCTC 12201 [21]: 8 µg/mL (≈ 11.3 µM); Gyrase inhibitory activity IC50 [22]: 4.25 µg/mL
3 | O=C(CCc1ccc(F)cc1)OC[C@H]1O[C@@H](Oc2c(-c3ccc(O)c(O)c3)oc3cc(O)cc(O)c3c2=O)[C@H](OC(=O)CCc2ccc(F)cc2)[C@@H](O)[C@H]1O [Compound 14m, 2-(3′,4′-Dihydroxyphenyl)-5,7-dihydroxy-3-β-D-{2″,6″-di-O-[3′″-(4-fluorophenylpropanoyl)]}galactosyl-4H-chromen-4-one] | 32 (≈ 41.8 µM) | 16 (≈ 20.9 µM) | 16 (≈ 20.9 µM) | 16 (≈ 20.9 µM) | 32 (≈ 41.8 µM) | 16 (≈ 20.9 µM) | 16 (≈ 20.9 µM) | 16 (≈ 20.9 µM) | 32 (≈ 41.8 µM) | >128 | >128 | 1400 | 7520 | 2990 | –
